According to patent US12281178B2, “Tuning of pore-forming peptides for increasing pore size, membrane affinity, stability, and antimicrobial activity” (ADOLPHE MERKLE INSTITUTE, UNIVERSITY OF FRIBOURG, priority 2018, dated 2025):
“Also recorded” adds a separate entry of the source.

Key:
[1] = Planar lipid bilayer single channel recordings of CtxA and flexible-template CtxA-DNA assemblies; format: biochemical
Method: The lipid composition for the bilayers consisted of POPC, DOPE and POPS with a 7:3:1 (w/w) ratio (PC/PE/PS) or for the origami structures in diphytanoyl phosphatidylcholine (DiPhyPC). We dissolved the resulting lipid mixture in pentane (total lipid concentration: 10 mg/mL). The buffered electrolyte solution consisted of 1M NaCl, 10 mM HEPES, pH 7.4 or 3M CsCl, 10 mM HEPES, pH 7.4 in 30% glycerol.
We designed Teflon chambers with one big compartment (containing a maximum volume of 1.5 mL) and one small compartment (containing a maximum volume of 200 μL). We pretreated Teflon films (Eastern Scientific LLC, Rockville, MD) with apertures of 50 μm by pipetting 1 μL of pre-treatment solution—hexadecane in hexane 2.5% (v/v)—onto both sides of the aperture of the Teflon film. We then mounted the Teflon film in a Teflon chamber using high-vacuum grease (Dow Corning Corporation), separating the two compartments of the Teflon chamber. The only connection between the compartments was the aperture in the Teflon film over which we formed virtually solvent-free planar lipid bilayers using the technique described by Montal and Mueller^10. Briefly, we added electrolyte solution to both compartments (1.2 mL in the bigger compartment and 160 μL for the smaller one) and spread 1-2 μL of lipid solution onto the surface of the buffered electrolyte solution. After the solvent evaporated, a lipid monolayer (Langmuir film) formed at the air-water interface. […] We then thinned the membrane by lowering and raising the electrolyte solution in one compartment, until we measured a capacitance of 60±10 pF. To monitor capacitance, we applied a triangular voltage and the capacitance was either calculated by the amplifier or determined visually using the manual capacitance compensation of the amplifier. Prior to adding the peptide, we checked the stability of the bilayer (absence of leak currents, expected noise level) by applying transmembrane voltages of up to 200 mV for 5 min at both polarities. We used one of two different amplifiers, an EPC7 (HEKA Instruments Inc., Holliston, MA, USA) or a BC-535 (Warner Instruments Hamden, CT, USA)) and connected both compartments to the amplifier through two Ag/AgCl pellet electrodes (Warner Instruments Hamden, CT, USA). We placed the Teflon chambers inside Faraday cages, on BM4 vibration isolation platforms (Minus K® Technology, Inc., Inglewood, CA, USA). We carried out all experiments at room temperature (22±1° C.) and tested all setups with different model cells to confirm proper functionality of the amplifiers and function generators. We sampled currents at 50 kHz and low-pass 10 kHz. We analysed data using OriginLab (OriginLab Corporation, Northampton, MA, USA) and pClamp (Molecular Devices, Sunnyvale, CA, USA) software.
We performed the experiments with the peptide-DNA hybrid in two different ways: (i) we added all components sequentially—ssDNA-CtxA first, then the template strands, one after the other—or (ii) we mixed the ssDNA-CtxA with the spacer strand (with or without cholesterol) and the template strand in a DNA LoBind tube (Eppendorf Tubes, Hamburg, Germany) and let them react overnight at room temperature (pre-incubation experiments). We also performed the pre-incubation experiments with and without HPLC-SEC purification. In the case of unpurified assemblies, we added the DNA-modified peptides and the spacer strand stoichiometrically and then added the n-mer template (with n equal to 4, 6 or 8) at a ratio of 1 mole for n moles of DNA-modified peptide. When purifying the assemblies, we added the peptide-DNA monomers in excess compared to the template strand (at least 5 n moles of peptide for 1 mol of n-mer template) and removed the excess monomers using HPLC-SEC purification (Agilent SEC 3 column, 300 mm, […], 4.6 mm internal diameter). We then stored the collected assemblies at +4° C. for later use and add the spacer strand in excess prior to the experiment. […]

A549 cells = test: Cytotoxic activity: change in confluence of A549 cells over time (IncuCyte); format: cell-based
Method: We grew lung epithelial A549 cells in RPMI 1640 medium containing 25 mM HEPES, 1% L-glutamine, 10% fetal bovine serum and added 1% penicillin-streptomycin for prevention of bacterial contamination of cell cultures. We seeded the cells in 96-well plates (TPP, Trasadingen, Switzerland) with 10′000 cells per well, in a total volume of 50 uL per well. We placed the plates in the IncuCyte Zoom imaging system (Essen Bioscience, Ann Arbor, MI, USA) placed inside of an incubator set to 37° C. and 5% CO2 and monitored the growth of the cell by monitoring the change in confluence over time. We seeded the cells and left them to adhere and replicate for 20 h before adding the templated CtxA-DNA assemblies or native CtxA as control. We then measured the cell confluence every 2 h. To estimate the effect of the different peptide assemblies on the change in confluence over time, we fitted the observed confluence levels after peptide addition linearly.

[2] = applied potential difference of +180 mV

Question: With “Ceratotoxin A (SIGSALKKALPVAKKIGKIALPIAKAALPVAAGLVG) [Native CtxA]” as the substance, how does the “Minimum concentration to display significant / frequent pore formation” value [1] read?
Answer: Its value is 10 to 20 nM.

Question: What about the Pore lifetime [1] of the same substance?
Answer: The Pore lifetime was “hundreds of milliseconds; also recorded: less than one second”.

Question: And the “Conductance, open state O1 (3-mer)” value [1, 2]?
Answer: The value was 50 ± 25 pS.

Question: And the “Conductance, open state O2 (4-mer)” value [1, 2]?
Answer: The value was 510 ± 30 pS.

Question: What about the “Conductance, open state O3 (5-mer)” value [1, 2] of the same substance?
Answer: Its value is 1645 ± 200 pS.

Question: What about the “Conductance, open state O4 (6-mer)” value [1, 2] of the same substance?
Answer: The value was 3125 ± 305 pS.

Question: What about the “Conductance, open state O5 (7-mer)” value [1, 2] of the same substance?
Answer: Its value is 4630 ± — pS.

Question: And the “Conductance, open state O6 (8-mer)” value [1, 2]?
Answer: The value was 6600 ± — pS.

Question: And the Pore-forming activity ([1]; total peptide concentration of 5 nM, +180 mV)?
Answer: The Pore-forming activity was “little to no pore formation”.

Question: What about the “Concentration necessary to reduce cell viability” value (A549 cells) of the same substance?
Answer: Its value is 50 to 100 µM.

Question: And the “Total CtxA concentration sufficient to completely stop replication of the cells” value (A549 cells)?
Answer: Its value is 100 µM.
